In ChEMBL document CHEMBL3301562, “MMV Box screening against Plasmodium falciparum protein kinases and aminoacyl tRNA synthetases” one finds IC50 data, which are given here for 15 molecules.

Common to all, as to type: functional
Experiment [1] has as its target T1, Mitogen-activated protein kinase (Plasmodium falciparum, UniProt Q25917).
T1 sequence (Q25917 whole entry): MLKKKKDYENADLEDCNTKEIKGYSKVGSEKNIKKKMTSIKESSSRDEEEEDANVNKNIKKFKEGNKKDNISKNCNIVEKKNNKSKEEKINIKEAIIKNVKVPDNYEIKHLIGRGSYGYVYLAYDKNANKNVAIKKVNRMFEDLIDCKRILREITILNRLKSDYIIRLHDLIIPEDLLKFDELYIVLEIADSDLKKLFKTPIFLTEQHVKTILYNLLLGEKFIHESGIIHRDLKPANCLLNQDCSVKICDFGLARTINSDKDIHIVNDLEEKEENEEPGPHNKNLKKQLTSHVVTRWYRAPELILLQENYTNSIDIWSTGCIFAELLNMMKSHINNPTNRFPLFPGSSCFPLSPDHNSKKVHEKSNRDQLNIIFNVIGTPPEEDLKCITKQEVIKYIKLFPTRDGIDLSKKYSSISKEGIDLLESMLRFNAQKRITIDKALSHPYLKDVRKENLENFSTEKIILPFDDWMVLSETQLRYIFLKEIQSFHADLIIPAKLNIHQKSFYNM
Briefly: Final concentrations were 1 uM ATP, 0.5 mM DTT, 1 mM MgCl2, 0.5 mg/mL BSA, and 10 ug/ml MAP2 in a buffer of 50 mM HEPES (pH 7.0). 0.5 mg/mL histone III-S served as the substrate (13); 100 uM AMP-PNP, an ATP analog, was used as a control inhibitor. Incubation time was 4 hours.

Experiment [2] has as its target T2, Proline--tRNA ligase (Plasmodium falciparum (isolate 3D7), UniProt Q8I5R7).
T2 sequence (Q8I5R7 whole entry): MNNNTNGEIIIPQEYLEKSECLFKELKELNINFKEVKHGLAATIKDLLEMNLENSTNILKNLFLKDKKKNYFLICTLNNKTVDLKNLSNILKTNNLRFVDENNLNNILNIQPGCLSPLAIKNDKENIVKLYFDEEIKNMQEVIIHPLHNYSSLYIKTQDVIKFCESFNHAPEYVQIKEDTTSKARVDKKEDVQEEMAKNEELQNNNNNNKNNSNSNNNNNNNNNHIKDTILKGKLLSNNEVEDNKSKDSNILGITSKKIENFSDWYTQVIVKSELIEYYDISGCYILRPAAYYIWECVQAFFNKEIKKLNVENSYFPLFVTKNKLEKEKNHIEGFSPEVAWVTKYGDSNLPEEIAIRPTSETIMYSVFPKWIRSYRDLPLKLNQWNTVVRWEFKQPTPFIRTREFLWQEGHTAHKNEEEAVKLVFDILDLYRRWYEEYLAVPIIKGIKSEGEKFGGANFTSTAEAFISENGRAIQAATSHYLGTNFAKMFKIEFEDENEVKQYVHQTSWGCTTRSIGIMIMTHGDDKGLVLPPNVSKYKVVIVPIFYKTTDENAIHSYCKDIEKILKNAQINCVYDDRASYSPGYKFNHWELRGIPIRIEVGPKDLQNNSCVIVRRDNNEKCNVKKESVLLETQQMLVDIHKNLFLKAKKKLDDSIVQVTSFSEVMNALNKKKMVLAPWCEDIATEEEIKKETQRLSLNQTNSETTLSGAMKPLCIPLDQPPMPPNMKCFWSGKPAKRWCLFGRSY
Nature of the experiment: MMV: ProRS recombinant Plasmodium falciparum Prolyl-tRNA-synthetase, assay with yeast tRNA, ATP, and proline and 3 uM MMV malaria box compound, assay read out with kinase glo as % inhibition. (Kinase-Glo reads ATP consumption through a luciferase reaction.)

In experiment [3] the target is T3, Cdk-related protein kinase 6 (Plasmodium falciparum, UniProt O77239).
T3 sequence (O77239 whole entry): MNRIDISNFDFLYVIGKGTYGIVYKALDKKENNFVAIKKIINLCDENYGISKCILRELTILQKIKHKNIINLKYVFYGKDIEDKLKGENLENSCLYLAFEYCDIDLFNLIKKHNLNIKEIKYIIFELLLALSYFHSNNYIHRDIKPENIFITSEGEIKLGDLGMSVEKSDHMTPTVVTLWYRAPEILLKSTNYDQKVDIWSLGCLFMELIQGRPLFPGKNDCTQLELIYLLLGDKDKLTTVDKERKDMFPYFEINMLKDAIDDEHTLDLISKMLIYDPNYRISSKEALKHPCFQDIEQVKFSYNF
Briefly: Final concentrations were 1.5 uM ATP, 5 mM MnCl2, and 15 ug/ml PK6 in a buffer of 100 mM Tris-HCl (pH 7.5). 50 ug/mL MBP was provided as the substrate; 10 uM staurosporine was used as a control inhibitor. Incubation time was 3 hours and 40 minutes.The catalytic activity of each kinase was considered proportional to ATP consumed, as determined from measurements of residual [ATP] with the luciferase-based reagent Kinase-Glo (Promega) following incubation. Luminescence (proportional to residual [ATP]) was measured on the plate readers FLx800 (BioTek Instruments, Winooski, VT, USA) and MicroBeta2.

For experiment [4], the target named is T4, Putative uncharacterized protein pk7 (Plasmodium falciparum, UniProt O96214).
T4 sequence (O96214 whole entry): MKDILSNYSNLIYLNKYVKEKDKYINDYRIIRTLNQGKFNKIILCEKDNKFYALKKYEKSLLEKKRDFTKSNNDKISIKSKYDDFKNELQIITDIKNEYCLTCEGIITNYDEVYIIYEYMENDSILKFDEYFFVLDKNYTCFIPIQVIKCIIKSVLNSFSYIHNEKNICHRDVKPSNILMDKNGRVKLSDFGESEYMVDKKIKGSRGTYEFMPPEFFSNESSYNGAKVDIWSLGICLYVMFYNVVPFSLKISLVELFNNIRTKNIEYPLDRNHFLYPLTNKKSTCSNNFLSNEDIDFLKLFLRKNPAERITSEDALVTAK
Nature of the experiment: Final concentrations were 1 uM ATP, 2 mM DTT, 20 mM MgCl2, 2 mM MnCl2, 0.01% BSA, and 6 ug/ml PK7, in a buffer of 20 mM Tris-HCl (pH 7.5). The enzyme itself was the only substrate present (since autophosphorylation occurs); 100 uM 1NA-PP1 was used as a control inhibitor. Incubation time was 3 hours.

For experiment [5], the target named is Calcium-dependent protein kinase 1 (Plasmodium falciparum, UniProt P62344). Briefly: MMV: CDPK1 Protein kinase inhibition assay using recombinant PfCDPK1, syntide 2 peptide substrate, ATP and KinaseGlo to measure % inhibition at 1 uM MMV box compound.
The target of experiment [6] is T5, Calcium-dependent protein kinase 4 (Plasmodium falciparum (isolate 3D7), UniProt Q8IBS5).
T5 sequence (Q8IBS5 whole entry): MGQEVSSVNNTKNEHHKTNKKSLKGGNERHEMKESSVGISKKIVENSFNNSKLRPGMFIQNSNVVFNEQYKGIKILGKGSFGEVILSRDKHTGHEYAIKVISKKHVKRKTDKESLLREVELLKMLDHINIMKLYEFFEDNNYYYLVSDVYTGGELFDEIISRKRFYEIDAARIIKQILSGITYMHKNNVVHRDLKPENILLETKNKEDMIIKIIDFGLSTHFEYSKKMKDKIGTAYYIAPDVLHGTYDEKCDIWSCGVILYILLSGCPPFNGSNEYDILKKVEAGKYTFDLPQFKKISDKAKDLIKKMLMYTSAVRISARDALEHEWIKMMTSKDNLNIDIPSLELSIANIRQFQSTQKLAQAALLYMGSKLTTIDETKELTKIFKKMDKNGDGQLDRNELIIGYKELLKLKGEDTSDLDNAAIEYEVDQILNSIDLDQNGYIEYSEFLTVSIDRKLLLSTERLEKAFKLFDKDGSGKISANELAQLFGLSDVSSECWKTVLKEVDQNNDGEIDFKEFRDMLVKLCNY
Briefly: MMV: CDPK4 Protein kinase inhibition assay using recombinant PfCDPK4, syntide2 peptide substrate, ATP and KinaseGlo to measure % inhibition at 1 uM MMV box compound.

The target of experiment [7] is Lysine--tRNA ligase (Plasmodium falciparum (isolate 3D7), UniProt Q8IDJ8). Briefly: MMV: KRS recombinant Plasmodium falciparum Lysyl-tRNA-synthetase, assay with yeast tRNA, ATP, and lysine and 3 uM MMV malaria box compound, assay read out with kinase glo as % inhibition.

Where only a bound is given, the exact number is not on record here.

Sequence of Lysine--tRNA ligase (Q8IDJ8 whole entry): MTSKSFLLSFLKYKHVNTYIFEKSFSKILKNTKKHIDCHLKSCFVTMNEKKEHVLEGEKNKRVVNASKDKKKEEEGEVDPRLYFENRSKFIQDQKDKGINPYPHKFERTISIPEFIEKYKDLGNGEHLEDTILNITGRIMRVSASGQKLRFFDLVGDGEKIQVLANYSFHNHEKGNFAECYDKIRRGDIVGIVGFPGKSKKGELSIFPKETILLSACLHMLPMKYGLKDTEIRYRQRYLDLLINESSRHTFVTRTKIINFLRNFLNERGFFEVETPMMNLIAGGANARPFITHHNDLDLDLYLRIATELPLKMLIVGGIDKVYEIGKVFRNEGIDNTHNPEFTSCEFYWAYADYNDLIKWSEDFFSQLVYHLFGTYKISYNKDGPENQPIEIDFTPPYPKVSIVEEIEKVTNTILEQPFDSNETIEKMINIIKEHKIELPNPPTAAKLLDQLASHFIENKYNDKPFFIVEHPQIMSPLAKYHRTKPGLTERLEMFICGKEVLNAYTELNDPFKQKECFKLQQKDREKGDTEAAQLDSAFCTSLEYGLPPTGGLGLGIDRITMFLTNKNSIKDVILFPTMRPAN
Sequence of Calcium-dependent protein kinase 1 (P62344 whole entry): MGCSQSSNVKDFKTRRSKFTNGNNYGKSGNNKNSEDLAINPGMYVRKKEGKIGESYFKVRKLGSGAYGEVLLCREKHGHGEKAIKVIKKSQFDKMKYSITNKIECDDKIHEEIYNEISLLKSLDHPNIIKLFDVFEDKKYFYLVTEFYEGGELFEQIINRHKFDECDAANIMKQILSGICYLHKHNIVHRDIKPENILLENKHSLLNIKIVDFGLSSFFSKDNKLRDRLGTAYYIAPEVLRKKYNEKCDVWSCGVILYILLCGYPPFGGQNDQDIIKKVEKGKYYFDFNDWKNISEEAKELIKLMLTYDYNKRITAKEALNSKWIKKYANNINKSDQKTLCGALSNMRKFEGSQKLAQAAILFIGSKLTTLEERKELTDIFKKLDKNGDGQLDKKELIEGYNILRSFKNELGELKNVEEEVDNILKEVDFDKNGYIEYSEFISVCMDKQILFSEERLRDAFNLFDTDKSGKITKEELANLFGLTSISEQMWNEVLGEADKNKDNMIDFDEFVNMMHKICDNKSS

For the molecule `c1ccc(-c2ccc(-c3nc4ccccc4[nH]3)cc2)cc1`, the IC50 in experiment [1] is over 1 µM; in experiment [2] it was over 2.5 µM; in experiment [3], over 1 µM; in experiment [4], over 1 µM; in experiment [5] it was over 1 µM; in experiment [6] it was over 1 µM. Besides, the half-maximal inhibitory concentration (IC50) in experiment [7] is over 2.5 µM.

In the case of `CCC(C)NCC(O)(c1ccc(Cl)cc1)c1ccc(Cl)cc1` (stereo not given), the half-inhibitory concentration (IC50) in experiment [1] was over 1 µM; in experiment [2] it was over 2.5 µM; in experiment [3], over 1 µM; in experiment [4] it was over 1 µM; in experiment [5], over 1 µM; in experiment [6] it was over 1 µM. In addition, in experiment [7], the 50% inhibitory concentration (IC50) was over 2.5 µM.

On to `COCCNC(=O)c1ccc(OC2CCN(Cc3ccc(F)c(F)c3)CC2)c(Cl)c1`, for which the half-inhibitory concentration (IC50) in experiment [1] is over 1 µM; in experiment [2], over 2.5 µM; in experiment [3], over 1 µM; in experiment [4], over 1 µM; in experiment [5], over 1 µM; in experiment [6], over 1 µM. Besides, in experiment [7], the IC50 is over 2.5 µM.

As to `COCCN(C(=O)Cc1cccs1)C(C(=O)NCc1ccc(OC)cc1)c1ccc(C(C)C)cc1` (stereo not given), the half-inhibitory concentration (IC50) in experiment [1] is over 1 µM; in experiment [2], over 2.5 µM; in experiment [3], over 1 µM; in experiment [4], over 1 µM; in experiment [5], over 1 µM; in experiment [6], over 1 µM. Moreover, in experiment [7], the 50% inhibitory concentration (IC50) was over 2.5 µM.

Take `FC(F)(F)c1cccc(CNC2CCN(CCc3ccccc3)CC2)c1`: the half-inhibitory concentration (IC50) is over 1 µM in experiment [1]; over 2.5 µM in experiment [2]; over 1 µM in experiment [3]; over 1 µM in experiment [4]; over 1 µM in experiment [5]; over 1 µM in experiment [6]. The IC50 in experiment [7] is over 2.5 µM.

In the case of `Oc1ccc(Cl)cc1CNc1nc2ccccc2[nH]1`, the IC50 is over 1 µM in experiment [1]; over 2.5 µM in experiment [2]; over 1 µM in experiment [3]; over 1 µM in experiment [4]; over 1 µM in experiment [5]; over 1 µM in experiment [6]. Further, in experiment [7], the IC50 is over 2.5 µM.

For the molecule `O=C(c1ccccc1F)N(Cc1ccc(Cl)cc1)c1ccccn1`, the IC50 in experiment [1] was over 1 µM; in experiment [2] it was over 2.5 µM; in experiment [3] it was over 1 µM; in experiment [4], over 1 µM; in experiment [5] it was over 1 µM; in experiment [6] it was over 1 µM. For the same molecule, the IC50 in experiment [7] is over 2.5 µM.

Turning to `O=C(Nc1ccc(Cl)cc1)N1CCN(c2ccc3nncn3n2)CC1`, the concentration for half-maximal inhibition (IC50) in experiment [1] was over 1 µM; in experiment [2] it was over 2.5 µM; in experiment [3], over 1 µM; in experiment [4], over 1 µM; in experiment [5] it was over 1 µM; in experiment [6] it was over 1 µM. For the same molecule, in experiment [7], the IC50 was over 2.5 µM.

Regarding `CC(C)(C)CC(C)(C)NCC(O)COc1ccc2c(c1)CCC2` (stereo not given), the IC50 was over 1 µM in experiment [1]; over 2.5 µM in experiment [2]; over 1 µM in experiment [3]; over 1 µM in experiment [4]; over 1 µM in experiment [5]; over 1 µM in experiment [6]. In experiment [7], the IC50 was over 2.5 µM.

As to `CCOc1ccc(/C=C/c2nc(=O)c3ccccc3o2)cc1`, the IC50 in experiment [1] is over 1 µM; in experiment [2], over 2.5 µM; in experiment [3] it was over 1 µM; in experiment [4] it was over 1 µM; in experiment [5] it was over 1 µM; in experiment [6], over 1 µM. Moreover, the 50% inhibitory concentration (IC50) in experiment [7] was over 2.5 µM.

For `CC(O)(c1ccc(Cl)cc1)C(CN1CCCCC1)c1ccccc1` (stereo not given), the half-inhibitory concentration (IC50) in experiment [1] is over 1 µM; in experiment [2], over 2.5 µM; in experiment [3], over 1 µM; in experiment [4] it was over 1 µM; in experiment [5], over 1 µM; in experiment [6], over 1 µM. The IC50 in experiment [7] is over 2.5 µM.

As to `CCCCc1ccc(NS(=O)(=O)c2cc3c4c(c2)CCN4C(=O)CC3)cc1`, the 50% inhibitory concentration (IC50) was over 1 µM in experiment [1]; over 2.5 µM in experiment [2]; over 1 µM in experiment [3]; over 1 µM in experiment [4]; over 1 µM in experiment [5]; over 1 µM in experiment [6]. For the same molecule, the 50% inhibitory concentration (IC50) in experiment [7] was over 2.5 µM.

Regarding `CCOc1ccccc1CNC(=O)C1c2ccccc2C(=O)N(CC(C)C)C1c1cccs1` (stereo not given), the IC50 in experiment [1] was over 1 µM; in experiment [2], over 2.5 µM; in experiment [3], over 1 µM; in experiment [4], over 1 µM; in experiment [5], over 1 µM; in experiment [6], over 1 µM. Besides, in experiment [7], the IC50 is over 2.5 µM.

As to `COc1ccc(C2Sc3ccccc3N=C3C2=C(O)c2ccccc23)cc1` (stereo not given), the half-maximal inhibitory concentration (IC50) was over 1 µM in experiment [1]; over 2.5 µM in experiment [2]; over 1 µM in experiment [3]; over 1 µM in experiment [4]; over 1 µM in experiment [5]; over 1 µM in experiment [6]. Moreover, the IC50 in experiment [7] is over 2.5 µM.

`CCN(CC)CCCNc1nc(-c2ccc(Cl)cc2)nc2ccccc12`: the IC50 in experiment [1] is over 1 µM; in experiment [2] it was over 2.5 µM; in experiment [3], over 1 µM; in experiment [4], over 1 µM; in experiment [5] it was over 1 µM; in experiment [6] it was over 1 µM. For the same molecule, the IC50 in experiment [7] was over 2.5 µM.

In general, IC50 refers to the concentration at which inhibition is half-maximal.
